The test system of this assay is HCV replicon. Description: HCV replicon replication assay (NPTII ELISA). Type of assay: cell-based, Hepatitis C virus (Huh-7 cells). Conditions: inhibition of HCV replicon replication in Huh-7 HCV replicon-containing cells, three days incubation, NPT level by ELISA. In short, it runs like this: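 Huh-7 cells carrying a Bartenschlager NPTII (neo) HCV replicon, treated 3 days at 37 °C with compound, generally 6 concentrations from 10 to 0.03 micromolar, in equal DMSO across wells. NPTII level, proportional to replication, read by capture ELISA on methanol:acetone-fixed cells; interferon alpha positive control; toxicity scored visually or by MTS.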

The mark [1] stands for this setting: Hepatitis C virus, Huh-7, 72 h, read-out: EC50.

Like-named read-outs stand apart in the source and are kept apart here. Some results are limits rather than exact numbers.

For orientation: EC50 means the concentration at which the effect is half-maximal. Regarding `NC(=O)N(c1ccc(OCC2CCCCC2)c(F)c1)c1nc(-c2ccc(F)c(F)c2)cs1` [Compound 120, 1-(4-(cyclohexylmethoxy)-3-fluorophenyl)-1-(4-(3,4-difluorophenyl)thiazol-2-yl)urea], the EC50 under setting [1] was below 1000 nM.

Regarding `CCCCCCOc1ccc(N(C(N)=O)c2nc(-c3ccc4c(c3)NC(=O)CO4)cs2)cc1` [Compound 121, 1-(4-(hexyloxy)phenyl)-1-(4-(3-oxo-3,4-dihydro-2H-benzo[b][1,4]oxazin-6-yl)thiazol-2-yl)urea], under setting [1], the concentration giving a half-maximal response (EC50) lay in the range of 1000 to 10000 nM.

As for `CCCCCCOc1ccc(N(C(N)=O)c2nc(-c3ccc(F)cc3)cs2)cc1` [Compound 122, 1-(4-(4-fluorophenyl)thiazol-2-yl)-1-(4-(hexyloxy)phenyl)urea], the concentration giving a half-maximal response (EC50) under setting [1] was below 1000 nM.

Turning to `CCCCCCOc1ccc(N(C(N)=O)c2nc(-c3ccccn3)cs2)cc1` [Compound 123, 1-(4-(hexyloxy)phenyl)-1-(4-(pyridin-2-yl)thiazol-2-yl)urea], under setting [1], the EC50 was below 1000 nM.

Regarding `CCCCCCOc1ccc(N(C(N)=O)c2nc(-c3ccc(F)c(F)c3)cs2)cc1` [Compound 124, 1-(4-(3,4-difluorophenyl)thiazol-2-yl)-1-(4-(hexyloxy)phenyl)urea], the EC50 under setting [1] was below 1000 nM.

In the case of `CC(C)COc1ccc(N(C(N)=O)c2nc(-c3ccc(F)cc3)cs2)cc1C(F)(F)F` [Compound 125, 1-(4-(4-fluorophenyl)thiazol-2-yl)-1-(4-isobutoxy-3-(trifluoromethyl)phenyl)urea], under setting [1], the concentration giving a half-maximal response (EC50) is below 1000 nM.

For the compound `CC(C)COc1ccc(N(C(N)=O)c2nc(-c3ccc(F)c(F)c3)cs2)cc1C(F)(F)F` [Compound 126, 1-(4-(3,4-difluorophenyl)thiazol-2-yl)-1-(4-isobutoxy-3-(trifluoromethyl)phenyl)urea], under setting [1], the EC50 is below 1000 nM.

Regarding `CCCCCOc1ccc2c(c1)[nH]c(=O)n2-c1nc(-c2cccnc2)cs1` [Compound 127, 5-(pentyloxy)-1-(4-(pyridin-3-yl)thiazol-2-yl)-1H-benzo[d]imidazol-2(3H)-one], under setting [1], the EC50 fell in the range of 1000 to 10000 nM.

Take `CCCCCOc1ccc2c(c1)[nH]c(=O)c(=O)n2-c1nc(-c2cccnc2)cs1` [Compound 128, 6-(pentyloxy)-1-(4-(pyridin-3-yl)thiazol-2-yl)quinoxaline-2,3(1H,4H)-dione]: the EC50 under setting [1] is above 10000 nM.

For the compound `CCCCCCCCOc1ccc(N(C(N)=O)c2nc(-c3cccnc3)cs2)cc1C(F)(F)F` [Compound 130, 1-(4-(octyloxy)-3-(trifluoromethyl)phenyl)-1-(4-(pyridin-3-yl)thiazol-2-yl)urea], the EC50 under setting [1] was below 1000 nM.

Regarding `CCCCCCCCOc1ccc(N(C(=O)C(N)=O)c2nc(-c3cccnc3)cs2)cc1C(F)(F)F` [Compound 131, N1-(4-(octyloxy)-3-(trifluoromethyl)phenyl)-N1-(4-(pyridin-3-yl)thiazol-2-yl)oxalamide], the EC50 under setting [1] was below 1000 nM.

In the case of `CCCCOc1ccc(N(C(N)=O)c2nc(-c3ccc(C)nc3)cs2)cc1C(F)(F)F` [Compound 132, 1-(4-butoxy-3-(trifluoromethyl)phenyl)-1-(4-(6-methylpyridin-3-yl)thiazol-2-yl)urea], under setting [1], the EC50 is below 1000 nM.

For the compound `CCCCOc1ccc(N(C(N)=O)c2nc(-c3ccc(O)c(C(N)=O)c3)cs2)cc1C(F)(F)F` [Compound 133, 5-(2-(1-(4-butoxy-3-(trifluoromethyl)phenyl)ureido)thiazol-4-yl)-2-hydroxybenzamide], the EC50 under setting [1] was below 1000 nM.

On to `CCCCOc1ccc(N(C(N)=O)c2nc(-c3ccc4c(c3)NC(=O)CO4)cs2)cc1C(F)(F)F` [Compound 134, 1-(4-butoxy-3-(trifluoromethyl)phenyl)-1-(4-(3-oxo-3,4-dihydro-2H-benzo[b][1,4]oxazin-6-yl)thiazol-2-yl)urea], for which, under setting [1], the concentration for a half-maximal effect (EC50) is 1000 to 10000 nM.

For the compound `CCCCOc1ccc(N(C(N)=O)c2nc(-c3ccc(F)cc3)cs2)cc1C(F)(F)F` [Compound 135, 1-(4-butoxy-3-(trifluoromethyl)phenyl)-1-(4-(4-fluorophenyl)thiazol-2-yl)urea], under setting [1], the EC50 is below 1000 nM.

As to `CCCCOc1ccc(N(C(N)=O)c2nc(-c3cccnc3)cs2)cc1C(F)(F)F` [Compound 136, 1-(4-butoxy-3-(trifluoromethyl)phenyl)-1-(4-(pyridin-3-yl)thiazol-2-yl)urea], under setting [1], the EC50 is below 1000 nM.

As for `CCCCOc1ccc(N(C(N)=O)c2nc(-c3ccncc3)cs2)cc1C(F)(F)F` [Compound 137, 1-(4-butoxy-3-(trifluoromethyl)phenyl)-1-(4-(pyridin-4-yl)thiazol-2-yl)urea], the EC50 under setting [1] was below 1000 nM.

In the case of `CCCCOc1ccc(N(C(N)=O)c2nc(-c3ccc(F)c(F)c3)cs2)cc1C(F)(F)F` [Compound 138, 1-(4-butoxy-3-(trifluoromethyl)phenyl)-1-(4-(3,4-difluorophenyl)thiazol-2-yl)urea], the EC50 under setting [1] is below 1000 nM.

As to `CCCCCN(C)c1ccc(N(C(N)=O)c2nc(-c3ccc(C)nc3)cs2)cc1C(F)(F)F` [Compound 139, 1-(4-(methyl(pentyl)amino)-3-(trifluoromethyl)phenyl)-1-(4-(6-methylpyridin-3-yl)thiazol-2-yl)urea], the EC50 under setting [1] was below 1000 nM.

As to `CCCCCN(C)c1ccc(N(C(N)=O)c2nc(-c3ccc(F)cc3)cs2)cc1C(F)(F)F` [Compound 140, 1-(4-(4-fluorophenyl)thiazol-2-yl)-1-(4-(methyl(pentyl)amino)-3-(trifluoromethyl)phenyl)urea], the EC50 under setting [1] is below 1000 nM.

As to `CCCCCOc1ccc(N(C(N)=O)c2nc(-c3ccncc3)cs2)cc1F` [Compound 141, 1-(3-fluoro-4-(pentyloxy)phenyl)-1-(4-(pyridin-4-yl)thiazol-2-yl)urea], the EC50 under setting [1] is above 10000 nM.

Consider `NC(=O)N(c1ccc(OCC2CCCCC2)c(F)c1)c1nc(-c2ccncc2)cs1` [Compound 142, 1-(4-(cyclohexylmethoxy)-3-fluorophenyl)-1-(4-(pyridin-4-yl)thiazol-2-yl)urea], for which the EC50 under setting [1] is 1000 to 10000 nM.

With `CCCCCCOc1ccc(N(C(N)=O)c2nc(-c3ccc(C)nc3)cs2)cc1` [Compound 143, 1-(4-(hexyloxy)phenyl)-1-(4-(6-methylpyridin-3-yl)thiazol-2-yl)urea], the EC50 under setting [1] fell in the range of 1000 to 10000 nM.

As to `CCCCCCOc1ccc(N(C(N)=O)c2nc(-c3ccc(O)c(C(N)=O)c3)cs2)cc1` [Compound 144, 5-(2-(1-(4-(hexyloxy)phenyl)ureido)thiazol-4-yl)-2-hydroxybenzamide], the EC50 under setting [1] was 1000 to 10000 nM.

As for `CCCCCCOc1ccc(N(C(N)=O)c2nc(-c3cccnc3)cs2)cc1` [Compound 145, 1-(4-(hexyloxy)phenyl)-1-(4-(pyridin-3-yl)thiazol-2-yl)urea], the concentration giving a half-maximal response (EC50) under setting [1] is below 1000 nM.

On to `CCCCCCOc1ccc(N(C(N)=O)c2nc(-c3ccncc3)cs2)cc1` [Compound 146, 1-(4-(hexyloxy)phenyl)-1-(4-(pyridin-4-yl)thiazol-2-yl)urea], for which the EC50 under setting [1] lay within 1000 to 10000 nM.

On to `Cc1ccc(-c2csc(N(C(N)=O)c3ccc(OCC(C)C)c(C(F)(F)F)c3)n2)cn1` [Compound 147, 1-(4-isobutoxy-3-(trifluoromethyl)phenyl)-1-(4-(6-methylpyridin-3-yl)thiazol-2-yl)urea], for which the EC50 under setting [1] was below 1000 nM.

Turning to `CC(C)COc1ccc(N(C(N)=O)c2nc(-c3ccc(O)c(C(N)=O)c3)cs2)cc1C(F)(F)F` [Compound 148, 2-hydroxy-5-(2-(1-(4-isobutoxy-3-(trifluoromethyl)phenyl)ureido)thiazol-4-yl)benzamide], the EC50 under setting [1] is below 1000 nM.

On to `CC(C)COc1ccc(N(C(N)=O)c2nc(-c3ccc4c(c3)NC(=O)CO4)cs2)cc1C(F)(F)F` [Compound 149, 1-(4-isobutoxy-3-(trifluoromethyl)phenyl)-1-(4-(3-oxo-3,4-dihydro-2H-benzo[b][1,4]oxazin-6-yl)thiazol-2-yl)urea], for which the EC50 under setting [1] was below 1000 nM.

`CC(C)COc1ccc(N(C(N)=O)c2nc(-c3ccccn3)cs2)cc1C(F)(F)F` [Compound 150, 1-(4-isobutoxy-3-(trifluoromethyl)phenyl)-1-(4-(pyridin-2-yl)thiazol-2-yl)urea]: under setting [1], the EC50 is below 1000 nM.

In the case of `CC(C)COc1ccc(N(C(N)=O)c2nc(-c3cccnc3)cs2)cc1C(F)(F)F` [Compound 151, 1-(4-isobutoxy-3-(trifluoromethyl)phenyl)-1-(4-(pyridin-3-yl)thiazol-2-yl)urea], under setting [1], the EC50 is below 1000 nM.

With `CC(C)COc1ccc(N(C(N)=O)c2nc(-c3cccnc3)cs2)cc1C(F)(F)F` [Compound 152, 1-(4-isobutoxy-3-(trifluoromethyl)phenyl)-1-(4-(pyridin-3-yl)thiazol-2-yl)urea], the EC50 was 1000 to 10000 nM.

`CCCCCOc1ccc(N(C(=O)C(N)=O)c2nc(-c3cccnc3)cs2)cc1C(F)(F)F` [Compound 153, N1-(4-(pentyloxy)-3-(trifluoromethyl)phenyl)-N1-(4-(pyridin-3-yl)thiazol-2-yl)oxalamide]: the EC50 under setting [1] is below 1000 nM.

For `CCCCCCCC(F)(F)c1ccc(N(C(C)=O)c2nc(-c3cccnc3)cs2)cc1` [Compound 154, N-(4-(1,1-difluorooctyl)phenyl)-N-(4-(pyridin-3-yl)thiazol-2-yl)acetamide], under setting [1], the EC50 is below 1000 nM.

With `CCCCCCc1ccc(N(C(N)=O)c2nc(-c3cccnc3)c(F)s2)cc1C(F)(F)F` [Compound 155, 1-(5-fluoro-4-(pyridin-3-yl)thiazol-2-yl)-1-(4-hexyl-3-(trifluoromethyl)phenyl)urea], the EC50 under setting [1] is below 1000 nM.

Turning to `CCCCCOc1ccc(N(C(N)=O)c2nc(-c3cccnc3)c(F)s2)cc1C(F)(F)F` [Compound 156, 1-(5-fluoro-4-(pyridin-3-yl)thiazol-2-yl)-1-(4-(pentyloxy)-3-(trifluoromethyl)phenyl)urea], the half-maximal effective concentration (EC50) under setting [1] is below 1000 nM.

With `CCCCCCCCc1ccc(N(C(=O)[C@@H](N)C(C)C)c2nc(-c3ccc(O)nc3)cs2)cc1C(F)(F)F` [Compound 157, (S)-2-amino-N-(4-(6-hydroxypyridin-3-yl)thiazol-2-yl)-3-methyl-N-(4-octyl-3-(trifluoromethyl)phenyl)butanamide], the EC50 under setting [1] lay within 1000 to 10000 nM.

These data come from patent publication US20070213301A1 (ACHILLION PHARMACEUTICALS, INC., priority 2006, published 2007).
